Counter-ions that a name gives are not always drawn.
How the values were obtained:
[1] = PK protocol, intravenous administration in rats; assay type: in vivo; conditions: rat, plasma, male Sprague Dawley rats, 1 mg/kg; for Vd: read-out: Vdss
Protocol: Pharmacokinetic parameters were determined in male Sprague Dawley rats (Vital River Laboratory Animal Technology Co Ltd, Beijing, China, 7-9 weeks old). Animals were group housed during the study and maintained under a 12 h light/dark cycle. For intravenous administration, compounds were formulated as a solution in DMSO:PBS [10:90] in 2 mL/kg dosing volume and administered via tail vein. Serial blood samples (about 200 μL) were taken from each animal at each of 8 time-points post dose (0.083, 0.25, 0.5, 1, 2, 4, 8 and 24 h). Samples were held on ice for no longer than 30 minutes before centrifugation (5,696 rpm (3,000 g) for 15 minutes) for plasma generation. Plasma was frozen on dry ice prior to bioanalysis. PK parameters were generated from LC-MS/MS data using Phoenix WinNonlin 6.3 software.

NLRP3 = NLRP3 (Homo sapiens (Human), UniProt Q96P20); experiment: THP-1 cells pyroptosis assay (LPS priming, nigericin, resazurin readout); assay type: cell-based; conditions: 1.0 μg/ml LPS, nigericin 5 μM, NLRP3 inhibitory activity
NLRP3, sequence (Q96P20 whole entry): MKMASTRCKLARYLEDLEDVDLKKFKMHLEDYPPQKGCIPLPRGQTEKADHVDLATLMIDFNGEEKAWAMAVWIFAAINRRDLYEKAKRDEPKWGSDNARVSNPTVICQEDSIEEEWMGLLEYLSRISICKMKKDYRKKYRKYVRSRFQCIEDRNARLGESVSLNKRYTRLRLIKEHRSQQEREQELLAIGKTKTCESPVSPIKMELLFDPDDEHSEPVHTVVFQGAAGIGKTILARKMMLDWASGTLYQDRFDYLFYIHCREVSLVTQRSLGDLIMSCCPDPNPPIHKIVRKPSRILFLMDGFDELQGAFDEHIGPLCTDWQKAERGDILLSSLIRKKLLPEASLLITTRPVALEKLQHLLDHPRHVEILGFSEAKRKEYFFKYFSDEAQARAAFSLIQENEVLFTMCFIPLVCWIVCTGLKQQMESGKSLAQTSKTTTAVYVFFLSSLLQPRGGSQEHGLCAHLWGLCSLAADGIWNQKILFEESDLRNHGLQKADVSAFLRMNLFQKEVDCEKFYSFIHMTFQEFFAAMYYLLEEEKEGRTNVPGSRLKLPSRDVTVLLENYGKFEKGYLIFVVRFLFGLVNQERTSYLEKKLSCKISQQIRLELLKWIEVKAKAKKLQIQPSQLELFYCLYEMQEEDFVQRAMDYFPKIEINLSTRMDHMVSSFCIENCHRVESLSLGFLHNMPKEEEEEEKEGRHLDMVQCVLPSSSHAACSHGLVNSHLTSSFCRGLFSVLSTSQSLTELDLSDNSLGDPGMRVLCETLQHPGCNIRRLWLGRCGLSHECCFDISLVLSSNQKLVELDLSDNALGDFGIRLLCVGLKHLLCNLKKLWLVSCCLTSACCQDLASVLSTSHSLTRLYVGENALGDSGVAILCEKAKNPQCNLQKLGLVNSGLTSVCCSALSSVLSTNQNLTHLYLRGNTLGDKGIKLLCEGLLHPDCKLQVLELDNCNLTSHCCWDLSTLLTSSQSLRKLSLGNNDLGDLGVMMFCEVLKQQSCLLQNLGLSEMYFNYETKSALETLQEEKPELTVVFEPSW
Protocol: THP-1 cells (ATCC #TIB-202) were grown in RPMI containing L-glutamine (Gibco #11835) supplemented with 1 mM sodium pyruvate (Sigma #S8636) and penicillin (100 units/ml)/streptomycin (0.1 mg/ml) (Sigma #P4333) in 10% Fetal Bovine Serum (FBS) (Sigma #F0804). The cells were routinely passaged and grown to confluency (10^6 cells/ml). On the day of the experiment, THP-1 cells were harvested and resuspended into RPMI medium (without FBS). The cells were then counted and viability (>90%) checked by Trypan blue (Sigma #T8154). Appropriate dilutions were made to give a concentration of 625,000 cells/ml. To this diluted cell solution was added LPS (Sigma #L4524) to give a 1 μg/ml Final Assay Concentration (FAC). 40 μl of the final preparation was aliquoted into each well of a 96-well plate. The plate thus prepared was used for compound screening. The following method step-by-step assay was followed for compound screening. • 1. Seed THP-1 cells (25,000 cells/well) containing 1.0 μg/ml LPS in 40 μl of RPMI medium (without FBS) in 96-well, black walled, clear bottom cell culture plates coated with poly-D-lysine (VWR #734-0317) • 2. Add […] compound (8 points half-log dilution, with […] top dose) or vehicle (DMSO 0.1% FAC) to the appropriate wells • 3. Incubate for 3 hrs at 37° C., 5% CO2 • 4. Add 5 μl nigericin (Sigma #N7143) (FAC 5 μM) to all wells • 5. Incubate for 1 hr at 37° C., 5% CO2 • 6. At the end of the incubation period, spin plates at 300×g for 3 mins and remove supernatant • 7. Then add 50 μl of resazurin (Sigma #R7017) (FAC 100 μM resazurin in RPMI medium without FBS) and incubate plates for a further 1-2 hrs at 37° C. and 5% CO2 • 8. Plates were read in an Envision reader at Ex 560 nm and Em 590 nm • 9. IC50 data is fitted to a non-linear regression equation (log inhibitor vs response-variable slope 4-parameters) The results of the pyroptosis assay are summarised in Table 1 below as THP IC50.

Compound	AUC [1]	clearance [1]	half-life [1]	Vd [1]	IC50 (NLRP3)
CC(C)c1cc(F)cc(-c2cccnc2)c1CC(=O)NS(=O)(=O)c1cnn(C2CC2)c1 [Example 11, N-((1-Cyclopropyl-1H-pyrazol-4-yl)sulfonyl)-2-(4-fluoro-2-isopropyl-6-(pyridin-3-yl)phenyl)acetamide]	1560 ng·h/mL	10.7 mL/min/kg	264 min	0.95 L/kg	1000 to 5000 nM
COc1cc(-c2cc(F)cc(C(C)C)c2CC(=O)NS(=O)(=O)c2cnn(C3CC3)c2)ccn1 [Example 18, N-((1-Cyclopropyl-1H-pyrazol-4-yl)sulfonyl)-2-(4-fluoro-2-isopropyl-6-(2-methoxypyridin-4-yl)phenyl)acetamide, potassium salt]	1550 ng·h/mL	15.4 mL/min/kg	984 min	6.52 L/kg	≤ 1000 nM
CC(C)c1cc(F)cc(C(C)C)c1CC(=O)NS(=O)(=O)c1cnn(C2CC2)c1 [Example 24, N-((1-Cyclopropyl-1H-pyrazol-4-yl)sulfonyl)-2-(4-fluoro-2,6-diisopropylphenyl)acetamide]	1270 ng·h/mL	13.1 mL/min/kg	156 min	1.94 L/kg	1000 to 5000 nM
COc1cc(-c2cc(F)cc(C(C)C)c2CC(=O)NS(=O)(=O)c2ncn(C3CC3)n2)ccn1 [Example 21, N-((1-Cyclopropyl-1H-1,2,4-triazol-3-yl)sulfonyl)-2-(4-fluoro-2-isopropyl-6-(2-methoxypyridin-4-yl)phenyl)acetamide]	827 ng·h/mL	20.2 mL/min/kg	558 min	6.15 L/kg	1000 to 5000 nM

— US11530200B2, “Compounds” (Inflazome Limited, priority 2018, dated 2022)
